Data as given in patent publication US20110262464A1, “Compositions, Kits, and Methods for the Diagnosis, Prognosis, and Monitoring of Cancer Using GOLPH3” (DANAFARBER CANCER INSTITUTE, INC., priority 2008, published 2011).

Assays:
[1] = system: 1205LU melanoma xenograft tumors; experiment: In vivo rapamycin treatment of xenograft tumors; parameters: species or system mouse; details: 1205LU-GOLPH3 tumors; rapamycin 6.0 mg/kg i.p. every other day; day 8, post 4 doses
Procedure: (§1) For in vivo rapamycin studies, melanoma 1205LU and WM239A cells verified to stably-express empty vector or GOLPH3 were subcutaneously implanted into female nude animals (Taconic) at 5.0×10^5 cells/site on both flanks. Tumors were allowed to reach approximately 100 mm^3, after which time animals were randomized into separate cohorts for treatment with vehicle [5% (vol/vol) PEG400.5% (vol/vol) Tween-80) or rapamycin (6 mg/kg; LC Laboratories; 50 mg/ml stock prepared in 100% ETOH and diluted fresh in vehicle solvent for treatment) by intraperitoneal injection every other day. Tumor volumes and body weights were measured upon drug administration. Tumor volume was determined by measuring in two directions with vernier calipers and formulated as tumor volume=[…]. Growth curves were plotted as mean change in tumor volume for each group, where mean change indicates change in tumor volume at a given time point minus tumor volume at time of initial dose administration. Endpoint scatter plots were plotted as proportion of final dose endpoint tumor volume over respective tumor baseline starting volume. Percent tumor growth inhibition was determined as (1-(T/N))×100, where T is the mean change in tumor volume of the treated group and N is the mean change in tumor volume of the control group at the assay endpoint. Two-tailed t-test calculations were performed using Prism 4 (Graphpad).

[2] = system: WM239A melanoma xenograft tumors; experiment: In vivo rapamycin treatment of xenograft tumors; parameters: species or system mouse; details: WM239A-GOLPH3 tumors; rapamycin 6.0 mg/kg i.p. every other day; day 8, post 4 doses
Procedure: as §1

CO[C@H]1C[C@@H]2CC[C@@H](C)[C@@](O)(O2)C(=O)C(=O)N2CCCC[C@H]2C(=O)O[C@H]([C@H](C)C[C@@H]2CC[C@@H](O)[C@H](OC)C2)CC(=O)[C@H](C)/C=C(\C)[C@@H](O)[C@@H](OC)C(=O)[C@H](C)C[C@H](C)/C=C/C=C/C=C/1C [rapamycin]
percent tumor growth inhibition (% TGI) [1]: 81.9% | percent tumor growth inhibition (% TGI) [2]: 80.9%
